The text below walks through data of BindingDB's records for PubMed 1706716 (Duke University, 1991).

Assay [1] has as its target T1, Alpha-1B adrenergic receptor (Rattus norvegicus, UniProt P15823).
T1 sequence (P15823 whole entry): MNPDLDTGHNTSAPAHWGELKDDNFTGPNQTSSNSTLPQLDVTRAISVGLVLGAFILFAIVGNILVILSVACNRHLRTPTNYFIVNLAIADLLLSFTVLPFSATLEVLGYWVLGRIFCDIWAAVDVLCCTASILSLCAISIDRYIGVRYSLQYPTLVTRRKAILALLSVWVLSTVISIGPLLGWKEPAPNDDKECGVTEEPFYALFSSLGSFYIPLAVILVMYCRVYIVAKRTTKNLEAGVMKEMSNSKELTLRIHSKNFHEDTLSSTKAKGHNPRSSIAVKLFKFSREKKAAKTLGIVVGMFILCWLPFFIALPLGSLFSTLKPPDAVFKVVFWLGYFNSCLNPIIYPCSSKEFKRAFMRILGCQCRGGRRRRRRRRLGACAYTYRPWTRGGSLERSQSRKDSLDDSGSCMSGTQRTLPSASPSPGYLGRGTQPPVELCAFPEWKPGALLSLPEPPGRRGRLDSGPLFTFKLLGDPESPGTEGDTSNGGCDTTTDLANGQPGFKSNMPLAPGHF

The target of assay [2] is T2, Alpha-1A adrenergic receptor (Rattus norvegicus, UniProt P43140).
T2 sequence (P43140 whole entry): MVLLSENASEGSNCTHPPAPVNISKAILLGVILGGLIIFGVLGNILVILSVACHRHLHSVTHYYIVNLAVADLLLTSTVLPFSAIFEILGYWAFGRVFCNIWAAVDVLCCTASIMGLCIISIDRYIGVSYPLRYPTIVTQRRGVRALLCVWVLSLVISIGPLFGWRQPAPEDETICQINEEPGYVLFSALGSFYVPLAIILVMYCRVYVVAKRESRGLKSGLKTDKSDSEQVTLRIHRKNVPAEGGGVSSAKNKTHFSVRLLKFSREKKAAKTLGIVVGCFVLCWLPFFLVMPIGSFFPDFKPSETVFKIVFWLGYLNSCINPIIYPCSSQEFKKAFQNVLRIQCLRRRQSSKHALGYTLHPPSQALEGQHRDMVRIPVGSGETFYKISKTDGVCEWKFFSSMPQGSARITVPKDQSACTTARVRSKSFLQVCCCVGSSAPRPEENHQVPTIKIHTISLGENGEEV

For assay [3], the target named is T3, Alpha-1A adrenergic receptor (Bos taurus, UniProt P18130).
T3 sequence (P18130 whole entry): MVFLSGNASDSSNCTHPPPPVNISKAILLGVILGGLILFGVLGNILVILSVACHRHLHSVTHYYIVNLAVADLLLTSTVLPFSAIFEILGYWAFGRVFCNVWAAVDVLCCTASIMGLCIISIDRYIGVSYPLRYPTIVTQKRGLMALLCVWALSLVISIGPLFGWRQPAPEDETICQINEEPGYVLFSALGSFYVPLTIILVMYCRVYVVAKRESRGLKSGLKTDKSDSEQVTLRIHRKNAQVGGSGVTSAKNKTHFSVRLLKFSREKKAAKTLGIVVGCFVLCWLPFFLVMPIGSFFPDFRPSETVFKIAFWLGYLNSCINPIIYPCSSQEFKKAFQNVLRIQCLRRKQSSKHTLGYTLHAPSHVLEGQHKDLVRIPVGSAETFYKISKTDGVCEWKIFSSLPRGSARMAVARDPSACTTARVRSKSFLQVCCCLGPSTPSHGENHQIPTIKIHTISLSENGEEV

Each structure is given as a SMILES string.

Consider `COc1ccc(OC)c(C(O)C(C)N)c1` (stereo not drawn), for which the values for the Ki in assay [1], in assay [2] and in assay [3] were 1610 nM, greater than 10000 nM and greater than 10000 nM, respectively.

As to `O=C(NC1CCN(CCc2c[nH]c3ccccc23)CC1)c1ccccc1` [N-{1-[2-(1H-Indol-3-yl)-ethyl]-piperidin-4-yl}-benzamide(indoramin)], the inhibition constant Ki (usually the equilibrium dissociation constant of an inhibitor or competing ligand from its target) was 226 nM in assay [1] and 611 nM in assay [2]. For `COc1cccc(OC)c1OCCNCC1Oc2ccccc2OC1c1ccccc1` (stereo not drawn) [NSC_185453], the Ki in assay [1] amounted to 28.6 nM; in assay [2], 2.1 nM; in assay [3] it was 0.68 nM. In turn, `NCC(O)c1ccc(O)c(O)c1` (stereo not drawn) [Noradrenaline,(+)] returned an inhibition constant Ki in assay [3] of 9730 nM. On the same count and under the same terms, the value for `CNC[C@H](O)c1cccc(O)c1` [PHENYLEPHRINE] was greater than 10000 nM; that for `Cc1ccc(N(CC2=NCCN2)c2cccc(O)c2)cc1` [SMR000059054] was 15.3 nM. On the same count and under the same terms, the value for `Cc1cc(C(C)(C)C)c(O)c(C)c1CC1=NCCN1` [SMR000059324] was 114 nM. `COC(=O)[C@@H]1[C@H]2C[C@H]3c4[nH]c5ccccc5c4CCN3C[C@@H]2CC[C@@H]1O` [yohimbic acid methyl ester] had an inhibition constant (Ki) in assay [1] of 517 nM.
